Test results from patent US20240262826A1, “WILD TYPE KIT INHIBITORS” (Blueprint Medicines Corporation, priority 2022, published 2024).
pIC50: −log10 of the molar value.

Columns and labels:
[1] = biological target: wild type c-kit (Homo sapiens (Human), UniProt P10721); assay: PathScan phospho c-kit (Tyr719) sandwich ELISA in SCF-stimulated M-07e cells (pKIT assay); assay type: cell-based; conditions: ELISA assay (values not marked *)
How it was run: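 Serum- and GM-CSF-starved M-07e cells (4 h) pretreated 60 min at 37 °C with an 8-point compound series in duplicate (0.25% DMSO), then stimulated with human SCF (500 ng/mL stock) 10 min at room temperature. Lysate c-kit Tyr719 phosphorylation quantified by sandwich ELISA with TMB read-out; IC50 from 4-parameter logistic fit.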

[2] = biological target: human P-glycoprotein (P-gp, MDR1) (Homo sapiens (Human), UniProt P08183); assay: MDCK-MDR1 cell monolayer drug transport assay (P-gp efflux ratio); assay type: in vitro ADME; conditions: pH 7.4, MDCK-MDR1 cells; for efflux ratio at 2 h, 1 µM: 1 uM concentration of compound, read-out: Pgp Efflux Ratio, 1 uM; for efflux ratio at 2 h, 0.1 µM: 0.1 uM concentration of compound (denoted by **), read-out: Pgp Efflux Ratio
How it was run: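 P-gp substrate potential tested in MDCK-MDR1 monolayers on Transwell supports, cultured 4-8 days; monolayers with TEER <42 ohms·cm2 discarded. Transport run in HBSS (10 mM HEPES, pH 7.4) at 37° C with compound working solution at 1 μM.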

human P-glycoprotein (P-gp, MDR1), sequence (P08183 whole entry): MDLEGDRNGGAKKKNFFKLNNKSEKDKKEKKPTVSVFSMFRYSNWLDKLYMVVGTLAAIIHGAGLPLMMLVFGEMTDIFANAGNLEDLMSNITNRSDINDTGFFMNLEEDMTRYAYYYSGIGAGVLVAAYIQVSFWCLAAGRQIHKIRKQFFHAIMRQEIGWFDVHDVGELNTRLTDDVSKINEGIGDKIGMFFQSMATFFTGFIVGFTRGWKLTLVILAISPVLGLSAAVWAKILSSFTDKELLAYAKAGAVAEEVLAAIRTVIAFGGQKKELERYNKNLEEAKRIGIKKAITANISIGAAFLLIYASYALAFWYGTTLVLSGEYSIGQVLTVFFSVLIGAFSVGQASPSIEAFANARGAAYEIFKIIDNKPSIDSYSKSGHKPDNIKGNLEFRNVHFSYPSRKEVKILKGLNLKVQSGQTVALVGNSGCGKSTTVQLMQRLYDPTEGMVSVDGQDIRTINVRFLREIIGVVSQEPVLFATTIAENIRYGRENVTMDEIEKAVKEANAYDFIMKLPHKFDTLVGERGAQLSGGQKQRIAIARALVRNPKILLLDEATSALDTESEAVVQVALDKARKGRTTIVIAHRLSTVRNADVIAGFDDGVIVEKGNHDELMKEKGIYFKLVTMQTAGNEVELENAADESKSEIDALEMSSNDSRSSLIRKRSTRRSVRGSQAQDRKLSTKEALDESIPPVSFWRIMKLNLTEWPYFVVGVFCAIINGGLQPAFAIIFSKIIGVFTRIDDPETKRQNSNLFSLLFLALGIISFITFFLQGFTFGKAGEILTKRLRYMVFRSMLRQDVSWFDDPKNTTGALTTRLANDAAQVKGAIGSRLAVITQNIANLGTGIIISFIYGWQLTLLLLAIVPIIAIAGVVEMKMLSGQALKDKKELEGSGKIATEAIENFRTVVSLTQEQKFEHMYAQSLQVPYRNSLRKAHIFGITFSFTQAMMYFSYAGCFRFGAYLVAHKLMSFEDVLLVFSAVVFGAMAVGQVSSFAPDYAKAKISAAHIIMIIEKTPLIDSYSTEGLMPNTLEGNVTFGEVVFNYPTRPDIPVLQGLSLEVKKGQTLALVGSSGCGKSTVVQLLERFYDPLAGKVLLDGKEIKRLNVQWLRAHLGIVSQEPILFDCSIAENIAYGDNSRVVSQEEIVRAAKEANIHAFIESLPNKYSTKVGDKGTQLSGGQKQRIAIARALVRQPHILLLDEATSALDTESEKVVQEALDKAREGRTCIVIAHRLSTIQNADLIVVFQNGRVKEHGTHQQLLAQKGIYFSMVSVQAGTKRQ
wild type c-kit, sequence (P10721 26-976): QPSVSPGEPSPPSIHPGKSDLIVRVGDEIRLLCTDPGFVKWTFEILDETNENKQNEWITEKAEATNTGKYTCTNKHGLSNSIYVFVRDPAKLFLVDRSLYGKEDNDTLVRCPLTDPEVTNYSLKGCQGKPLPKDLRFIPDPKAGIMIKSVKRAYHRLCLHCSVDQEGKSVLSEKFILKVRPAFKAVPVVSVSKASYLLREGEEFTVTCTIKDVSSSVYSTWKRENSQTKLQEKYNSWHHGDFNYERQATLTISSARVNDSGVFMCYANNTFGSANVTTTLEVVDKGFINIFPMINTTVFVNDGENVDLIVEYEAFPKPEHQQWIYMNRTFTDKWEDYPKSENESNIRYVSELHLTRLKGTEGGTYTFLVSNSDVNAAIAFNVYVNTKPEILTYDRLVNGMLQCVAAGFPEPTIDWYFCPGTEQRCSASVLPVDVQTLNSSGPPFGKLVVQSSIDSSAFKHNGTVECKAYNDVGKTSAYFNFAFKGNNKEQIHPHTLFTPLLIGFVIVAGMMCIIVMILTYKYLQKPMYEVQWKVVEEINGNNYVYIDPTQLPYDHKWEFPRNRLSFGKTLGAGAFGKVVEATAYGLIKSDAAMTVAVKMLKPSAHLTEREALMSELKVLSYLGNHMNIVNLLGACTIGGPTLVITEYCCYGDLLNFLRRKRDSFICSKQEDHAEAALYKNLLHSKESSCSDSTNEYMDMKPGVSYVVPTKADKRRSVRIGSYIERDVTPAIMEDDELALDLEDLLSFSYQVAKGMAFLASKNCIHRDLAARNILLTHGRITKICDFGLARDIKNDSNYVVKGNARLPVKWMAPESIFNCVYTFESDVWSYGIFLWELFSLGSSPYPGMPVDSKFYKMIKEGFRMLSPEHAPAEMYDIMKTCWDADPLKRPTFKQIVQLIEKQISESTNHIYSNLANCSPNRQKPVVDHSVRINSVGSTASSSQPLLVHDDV

Row | pIC50 [1] | efflux ratio at 2 h, 1 µM [2] | efflux ratio at 2 h, 0.1 µM [2] | SMILES
1 | 7.75 | 8.7 |  | COCCNc1ccn2ncc(C(=O)Nc3cc(-n4ncc(C5CN(C(=O)OC)C5)n4)ccc3C)c2c1 [Example 110, methyl 3-(2-(3-(5-((2-methoxyethyl)amino)pyrazolo[1,5-a]pyridine-3-carboxamido)-4-methylphenyl)-2H-1,2,3-triazol-4-yl)azetidine-1-carboxylate]
2 | 9.22 | 3.5 |  | COC[C@@H](O)Cn1ncc(-c2ccn3ncc(C(=O)Nc4cc(-c5nnn(C6CC6)n5)ccc4Cl)c3c2)c1C [Example 248, (S)-N-(2-chloro-5-(2-cyclopropyl-2H-tetrazol-5-yl)phenyl)-5-(1-(2-hydroxy-3-methoxypropyl)-5-methyl-1H-pyrazol-4-yl)pyrazolo[1,5-a]pyridine-3-carboxamide]
3 | 7.43 | 9.5 |  | COC(=O)N1CC(n2nnc(-c3ccc(C)c(NC(=O)c4cnn5ccc(NCC(C)(C)OC)cc45)c3)n2)C1 [Example 96, methyl 3-(5-(3-(5-((2-methoxy-2-methylpropyl)amino)pyrazolo[1,5-a]pyridine-3-carboxamido)-4-methylphenyl)-2H-tetrazol-2-yl)azetidine-1-carboxylate]
4 | 7.58 | 6.6 |  | Cc1cc(C#N)c(-c2nnn(C3CC(F)(F)C3)n2)cc1NC(=O)c1cnn2ccc(N3CCOCC3)cc12 [Example 165, N-(4-cyano-5-(2-(3,3-difluorocyclobutyl)-2H-tetrazol-5-yl)-2-methylphenyl)-5-morpholinopyrazolo[1,5-a]pyridine-3-carboxamide]
5 | 8.04 | 3.2 |  | Cc1cc(Cl)c(-c2nnn(C3CC(F)(F)C3)n2)cc1NC(=O)c1cnn2ccc(N3CCOCC3)cc12 [Example 168, N-(4-chloro-5-(2-(3,3-difluorocyclobutyl)-2H-tetrazol-5-yl)-2-methylphenyl)-5-morpholinopyrazolo[1,5-a]pyridine-3-carboxamide]
6 | 6.88 | 22.3 |  | COC(=O)N1CC(n2nnc(-c3ccc(C)c(NC(=O)c4cnn5ccc(NC[C@H](C)O)cc45)c3)n2)C1 [Example 94, methyl (S)-3-(5-(3-(5-((2-hydroxypropyl)amino)pyrazolo[1,5-a]pyridine-3-carboxamido)-4-methylphenyl)-2H-tetrazol-2-yl)azetidine-1-carboxylate]
7 | 8.26 | 28.9 |  | Cc1ccc(-c2nnn([C@H]3C[C@@H](C(F)(F)F)C3)n2)cc1NC(=O)c1cnn2ccc(N3CC(C)(O)C3)cc12 [Example 107, 5-(3-hydroxy-3-methylazetidin-1-yl)-N-(2-methyl-5-(2-((1s,3s)-3-(trifluoromethyl)cyclobutyl)-2H-tetrazol-5-yl)phenyl)pyrazolo[1,5-a]pyridine-3-carboxamide]
8 | 8.02 | 13.1 |  | Cc1ccc(-c2nnn(C3CC(F)(F)C3)n2)cc1NC(=O)c1cnn2ccc(N3CC[C@@H](O)C3)cc12 [Example 78, (R)-N-(5-(2-(3,3-difluorocyclobutyl)-2H-tetrazol-5-yl)-2-methylphenyl)-5-(3-hydroxypyrrolidin-1-yl)pyrazolo[1,5-a]pyridine-3-carboxamide]
9 | 8.72 |  | 5 | Cc1cc(Cl)c(NC(=O)c2cnn3ccc(-c4cnn(CC(C)(C)O)c4)cc23)cc1-c1nnn(C2CC2)n1 [Example 227, N-(2-chloro-5-(2-cyclopropyl-2H-tetrazol-5-yl)-4-methylphenyl)-5-(1-(2-hydroxy-2-methylpropyl)-1H-pyrazol-4-yl)pyrazolo[1,5-a]pyridine-3-carboxamide]
10 | 8.00 | 62.1 |  | Cc1cnn(-c2ccc(C)c(NC(=O)c3cnn4ccc(-c5cnn(C[C@@H]6CNCCO6)c5)cc34)c2)n1 [Example 204, (S)—N-(2-methyl-5-(4-methyl-2H-1,2,3-triazol-2-yl)phenyl)-5-(1-(morpholin-2-ylmethyl)-1H-pyrazol-4-yl)pyrazolo[1,5-a]pyridine-3-carboxamide]
11 | 8.89 | 14 |  | Cc1ccc(-c2nnn(C(C)C)n2)cc1NC(=O)c1cnn2ccc(-c3cnn(CCO)c3)cc12 [Example 49, 5-(1-(2-hydroxyethyl)-1H-pyrazol-4-yl)-N-(5-(2-isopropyl-2H-tetrazol-5-yl)-2-methylphenyl)pyrazolo[1,5-a]pyridine-3-carboxamide]
12 | 7.75 | 4.7 |  | COCCS(=O)(=O)N1CC(n2nnc(-c3ccc(C)c(NC(=O)c4cnn5ccccc45)c3)n2)C1 [Example 178, N-(5-(2-(1-((2-methoxyethyl)sulfonyl)azetidin-3-yl)-2H-tetrazol-5-yl)-2-methylphenyl)pyrazolo[1,5-a]pyridine-3-carboxamide]
13 | 7.19 | 13.5 |  | COC(=O)N1CC(n2nnc(-c3ccc(C)c(NC(=O)c4cnn5ccc(N6CCN(C)CC6)cc45)c3)n2)C1 [Example 66, methyl 3-(5-(4-methyl-3-(5-(4-methylpiperazin-1-yl)pyrazolo[1,5-a]pyridine-3-carboxamido)phenyl)-2H-tetrazol-2-yl)azetidine-1-carboxylate]
14 | 9.52 | 2.2 |  | O=C(Nc1cc(-n2nnc([C@H]3C[C@@H]3F)n2)ccc1Cl)c1cnn2ccc(-c3cnn(CC4(O)CCOCC4)c3)cc12 (single isomer, unassigned) [Example 271, N-(2-chloro-5-(5-((1R,2S)-2-fluorocyclopropyl)-2H-tetrazol-2-yl)phenyl)-5-(1-((4-hydroxytetrahydro-2H-pyran-4-yl)methyl)-1H-pyrazol-4-yl)pyrazolo[1,5-a]pyridine-3-carboxamide or N-(2-chloro-5-(5-((1S,2R)-2-fluorocyclopropyl)-2H-tetrazol-2-yl)phenyl)-5-(1-((4-hydroxytetrahydro-2H-pyran-4-yl)methyl)-1H-pyrazol-4-yl)pyrazolo[1,5-a]pyridine-3-carboxamide]
15 | 7.41 | 30.1 |  | CCOC(=O)N1CC(n2nnc(-c3ccc(C)c(NC(=O)c4cnn5ccc(NCCOC)cc45)c3)n2)C1 [Example 149, ethyl 3-(5-(3-(5-((2-methoxyethyl)amino)pyrazolo[1,5-a]pyridine-3-carboxamido)-4-methylphenyl)-2H-tetrazol-2-yl)azetidine-1-carboxylate]
16 | 9.22 | 12.8 |  | Cc1ccc(-c2nnn([C@H]3C[C@@H](C(F)(F)F)C3)n2)cc1NC(=O)c1cnn2ccc(N3CCC(C)(O)CC3)cc12 [Example 122, 5-(4-hydroxy-4-methylpiperidin-1-yl)-N-(2-methyl-5-(2-((1s,3s)-3-(trifluoromethyl)cyclobutyl)-2H-tetrazol-5-yl)phenyl)pyrazolo[1,5-a]pyridine-3-carboxamide or 5-(4-hydroxy-4-methylpiperidin-1-yl)-N-(2-methyl-5-(2-((1r,3r)-3-(trifluoromethyl)cyclobutyl)-2H-tetrazol-5-yl)phenyl)pyrazolo[1,5-a]pyridine-3-carboxamide]
17 | 7.62 | 72.2 |  | COC(=O)N1CC(c2cnn(-c3ccc(C)c(NC(=O)c4cnn5ccc(NCC6COC6)cc45)c3)n2)C1 [Example 140, methyl 3-(2-(4-methyl-3-(5-((oxetan-3-ylmethyl)amino)pyrazolo[1,5-a]pyridine-3-carboxamido)phenyl)-2H-1,2,3-triazol-4-yl)azetidine-1-carboxylate]
18 | 8.66 | 6.3 |  | Cc1ccc(-n2nnc([C@@H]3CC3(F)F)n2)cc1NC(=O)c1cnn2ccc(-c3cnn(CCO)c3)cc12 (single isomer, unassigned) [Example 233, (S)-N-(5-(5-(2,2-difluorocyclopropyl)-2H-tetrazol-2-yl)-2-methylphenyl)-5-(1-(2-hydroxyethyl)-1H-pyrazol-4-yl)pyrazolo[1,5-a]pyridine-3-carboxamide or (R)-N-(5-(5-(2,2-difluorocyclopropyl)-2H-tetrazol-2-yl)-2-methylphenyl)-5-(1-(2-hydroxyethyl)-1H-pyrazol-4-yl)pyrazolo[1,5-a]pyridine-3-carboxamide]
19 | 9.30 |  | 3.8 | CC(C)(O)Cn1cc(-c2ccn3ncc(C(=O)Nc4cc(-c5nnn(C6CC6)n5)ccc4Cl)c3c2)cn1 [Example 234, N-(2-chloro-5-(2-cyclopropyl-2H-tetrazol-5-yl)phenyl)-5-(1-(2-hydroxy-2-methylpropyl)-1H-pyrazol-4-yl)pyrazolo[1,5-a]pyridine-3-carboxamide]
20 | 7.98 | 4 |  | COCCOc1ccc2c(C(=O)Nc3cc(-c4nnn(C5CN(C(=O)OC)C5)n4)ccc3C)cnn2c1 [Example 143, methyl 3-(5-(3-(6-(2-methoxyethoxy)pyrazolo[1,5-a]pyridine-3-carboxamido)-4-methylphenyl)-2H-tetrazol-2-yl)azetidine-1-carboxylate]

Row | SMILES | pIC50 [1] | efflux ratio at 2 h, 1 µM [2] | efflux ratio at 2 h, 0.1 µM [2]
21 | COC(=O)N1CC(n2nnc(-c3ccc(C)c(NC(=O)c4cnn5ccc(N6CC7(COC7)C6)cc45)c3)n2)C1 [Example 98, methyl 3-(5-(3-(5-(2-oxa-6-azaspiro[3.3]heptan-6-yl)pyrazolo[1,5-a]pyridine-3-carboxamido)-4-methylphenyl)-2H-tetrazol-2-yl)azetidine-1-carboxylate] | 7.32 | 15.5 | 
